According to patent US20230148214A1, “INDAZOLES AND AZAINDAZOLES AS LRRK2 INHIBITORS” (ESCAPE Bio, Inc., priority 2020, published 2023):

How the values were obtained:
LRRK2 WT = target: T1, LRRK2 WT (Homo sapiens, UniProt Q5S007); test: LRRK2 Kinase Activity Assay (LanthaScreen TR-FRET), wild type; type: biochemical; settings: recombinant wild type LRRK2, 25 μM ATP, 400 nM LRRKtide, 60 min
T1 construct: purchased Life Technologies PR8604B
Summary of the method: (§1)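 IC50 fitted to the compound-dependent loss of TR-FRET signal. Each kinase form, wild type or G2019S, phosphorylated the fluorescein-tagged ERM-derived LRRKtide in the presence of ATP and compound dilutions over 60 min at room temperature; quench contained 10 mM EDTA and 2 nM anti-pERM antibody (final).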

LRRK2 G2019S = target: T2, LRRK2 G2019S (Homo sapiens, UniProt Q5S007, G2019S); test: LRRK2 Kinase Activity Assay (LanthaScreen TR-FRET), G2019S; type: biochemical; settings: recombinant G2019S-LRRK2, 25 μM ATP, 400 nM LRRKtide, 60 min; class symbols
T2 construct: purchased Life Technologies PV4881
Summary of the method: as §1

T2 sequence (Q5S007 whole entry G2019S): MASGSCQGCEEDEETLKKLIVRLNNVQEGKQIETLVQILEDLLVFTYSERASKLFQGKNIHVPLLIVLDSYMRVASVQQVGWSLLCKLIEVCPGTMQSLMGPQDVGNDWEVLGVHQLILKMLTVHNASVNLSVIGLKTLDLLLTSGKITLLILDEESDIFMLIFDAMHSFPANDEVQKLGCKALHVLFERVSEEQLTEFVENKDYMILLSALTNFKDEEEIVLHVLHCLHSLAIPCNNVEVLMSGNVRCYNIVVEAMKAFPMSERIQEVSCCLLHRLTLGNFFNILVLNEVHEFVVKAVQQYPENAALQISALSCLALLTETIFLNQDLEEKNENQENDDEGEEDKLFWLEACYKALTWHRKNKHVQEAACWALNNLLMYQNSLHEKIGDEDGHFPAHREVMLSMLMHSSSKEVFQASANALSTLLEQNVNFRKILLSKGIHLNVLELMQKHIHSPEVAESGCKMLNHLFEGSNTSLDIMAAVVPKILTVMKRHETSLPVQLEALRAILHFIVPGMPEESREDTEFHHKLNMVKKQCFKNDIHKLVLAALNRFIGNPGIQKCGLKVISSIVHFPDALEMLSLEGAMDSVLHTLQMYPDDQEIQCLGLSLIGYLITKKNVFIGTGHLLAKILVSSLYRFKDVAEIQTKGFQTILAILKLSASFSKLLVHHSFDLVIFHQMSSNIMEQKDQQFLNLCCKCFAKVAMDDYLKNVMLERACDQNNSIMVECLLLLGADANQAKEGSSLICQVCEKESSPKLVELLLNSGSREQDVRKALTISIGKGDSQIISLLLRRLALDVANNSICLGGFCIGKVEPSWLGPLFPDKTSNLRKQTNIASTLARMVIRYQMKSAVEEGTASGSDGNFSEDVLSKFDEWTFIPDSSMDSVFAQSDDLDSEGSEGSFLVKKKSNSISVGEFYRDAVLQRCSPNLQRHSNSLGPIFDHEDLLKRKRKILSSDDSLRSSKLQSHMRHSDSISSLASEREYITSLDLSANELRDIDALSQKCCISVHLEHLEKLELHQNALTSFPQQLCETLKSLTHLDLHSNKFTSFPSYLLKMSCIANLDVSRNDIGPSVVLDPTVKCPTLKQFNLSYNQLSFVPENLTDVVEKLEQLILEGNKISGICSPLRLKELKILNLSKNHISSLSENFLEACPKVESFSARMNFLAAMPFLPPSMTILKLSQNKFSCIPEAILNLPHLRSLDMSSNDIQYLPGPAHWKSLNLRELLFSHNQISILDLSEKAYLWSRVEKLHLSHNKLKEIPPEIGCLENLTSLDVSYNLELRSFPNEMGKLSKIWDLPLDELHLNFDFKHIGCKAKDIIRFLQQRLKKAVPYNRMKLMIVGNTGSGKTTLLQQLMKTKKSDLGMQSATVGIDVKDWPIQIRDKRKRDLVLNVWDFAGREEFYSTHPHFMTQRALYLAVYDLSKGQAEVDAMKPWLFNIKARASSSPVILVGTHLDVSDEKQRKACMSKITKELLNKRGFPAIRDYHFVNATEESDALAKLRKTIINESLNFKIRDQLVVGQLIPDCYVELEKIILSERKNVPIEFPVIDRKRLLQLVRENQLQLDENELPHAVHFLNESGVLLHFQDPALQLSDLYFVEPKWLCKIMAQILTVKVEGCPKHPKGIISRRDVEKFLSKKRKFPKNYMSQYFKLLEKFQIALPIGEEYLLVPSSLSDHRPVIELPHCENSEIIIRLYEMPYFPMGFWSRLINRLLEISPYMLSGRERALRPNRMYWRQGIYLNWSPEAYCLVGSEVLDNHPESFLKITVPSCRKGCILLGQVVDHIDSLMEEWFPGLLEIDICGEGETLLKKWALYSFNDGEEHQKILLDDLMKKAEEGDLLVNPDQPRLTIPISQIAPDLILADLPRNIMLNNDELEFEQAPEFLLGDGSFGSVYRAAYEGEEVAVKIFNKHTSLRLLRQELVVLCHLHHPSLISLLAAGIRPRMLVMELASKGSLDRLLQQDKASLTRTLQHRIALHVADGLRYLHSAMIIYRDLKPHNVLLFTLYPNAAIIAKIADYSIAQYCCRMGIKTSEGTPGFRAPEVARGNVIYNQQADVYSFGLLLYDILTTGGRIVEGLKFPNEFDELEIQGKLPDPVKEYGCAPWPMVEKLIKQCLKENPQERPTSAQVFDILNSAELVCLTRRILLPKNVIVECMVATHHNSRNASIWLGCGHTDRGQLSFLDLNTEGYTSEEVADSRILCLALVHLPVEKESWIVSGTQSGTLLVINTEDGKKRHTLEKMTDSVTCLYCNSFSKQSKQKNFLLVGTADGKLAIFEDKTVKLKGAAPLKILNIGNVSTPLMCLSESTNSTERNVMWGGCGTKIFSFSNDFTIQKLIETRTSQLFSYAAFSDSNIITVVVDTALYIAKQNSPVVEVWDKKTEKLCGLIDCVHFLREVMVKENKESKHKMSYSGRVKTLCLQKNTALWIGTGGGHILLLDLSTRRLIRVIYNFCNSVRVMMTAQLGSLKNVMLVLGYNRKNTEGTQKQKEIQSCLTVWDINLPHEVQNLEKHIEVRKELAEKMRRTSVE
T1 sequence (Q5S007 whole entry): as the sequence (Q5S007 whole entry G2019S) above, with S2019G counted along it

Structure (SMILES)	IC50 (LRRK2 WT; class symbols)	IC50 (LRRK2 G2019S)	IC50 (LRRK2 WT; numeric bound)
N#Cc1ccc2c(c1)CCC[C@@H]2Nc1ccc2[nH]nc(-c3ccc4c(c3)OCCO4)c2c1 (single isomer, unassigned) [Example 84, 5-((3-(2,3-Dihydrobenzo[b][1,4]dioxin-6-yl)-1H-indazol-5-yl)amino)-5,6,7,8-tetrahydronaphthalene-2-carbonitrile]	100 to 1000 nM	< 100 nM	–
CC(=O)Nc1cccc(-c2n[nH]c3ccc(N[C@H]4CCCc5cc(C#N)ccc54)cc23)c1 (single isomer, unassigned) [Example 85, N-(3-(5-((6-Cyano-1,2,3,4-tetrahydronaphthalen-1-yl)amino)-1H-indazol-3-yl)phenyl)acetamide]	< 100 nM	< 100 nM	–
CN(C)C(=O)c1cccc(-c2n[nH]c3ccc(N[C@H]4CCCc5cc(C#N)ccc54)cc23)c1 (single isomer, unassigned) [Example 86, 3-(5-((6-Cyano-1,2,3,4-tetrahydronaphthalen-1-yl)amino)-1H-indazol-3-yl)-N,N-dimethylbenzamide]	< 100 nM	< 100 nM	–
N#Cc1ccc2c(c1)CCC[C@@H]2Nc1ccc2[nH]nc(C3=CCC4(CC3)OCCO4)c2c1 (single isomer, unassigned) [Example 87, 5-((3-(1,4-Dioxaspiro[4.5]dec-7-en-8-yl)-1H-indazol-5-yl)amino)-5,6,7,8-tetrahydronaphthalene-2-carbonitrile]	1000 to 10000 nM	100 to 1000 nM	–
N#Cc1ccc2c(c1)CCC[C@@H]2Nc1ccc2[nH]nc(C3=CCOCC3)c2c1 (single isomer, unassigned) [Example 88, 5-((3-(3,6-Dihydro-2H-pyran-4-yl)-1H-indazol-5-yl)amino)-5,6,7,8-tetrahydronaphthalene-2-carbonitrile]	100 to 1000 nM	< 100 nM	–
N#Cc1cccc(-c2n[nH]c3ccc(N[C@H]4CCCc5cc(C#N)ccc54)cc23)c1 (single isomer, unassigned) [Example 89, 5-((3-(3-Cyanophenyl)-1H-indazol-5-yl)amino)-5,6,7,8-tetrahydronaphthalene-2-carbonitrile]	< 100 nM	< 100 nM	–
N#Cc1ccc2c(c1)CCC[C@@H]2Nc1ccc2[nH]nc(-c3ccc(C#N)nc3)c2c1 (single isomer, unassigned) [Example 91, 5-(5-((6-Cyano-1,2,3,4-tetrahydronaphthalen-1-yl)amino)-1H-indazol-3-yl)picolinonitrile]	100 to 1000 nM	< 100 nM	–
COc1ccc(-c2n[nH]c3ccc(N[C@H]4CCCc5cc(C#N)ccc54)cc23)cc1 (single isomer, unassigned) [Example 92, 5-((3-(4-Methoxyphenyl)-1H-indazol-5-yl)amino)-5,6,7,8-tetrahydronaphthalene-2-carbonitrile]	100 to 1000 nM	< 100 nM	–
N#Cc1ccc2c(c1)CCC[C@@H]2Nc1ccc2[nH]nc(/C=C/c3ccccc3)c2c1 (single isomer, unassigned) [Example 93, (E)-5-((3-Styryl-1H-indazol-5-yl)amino)-5,6,7,8-tetrahydronaphthalene-2-carbonitrile]	< 100 nM	< 100 nM	–
CN1CC=C(c2n[nH]c3ccc(N[C@H]4CCCc5cc(C#N)ccc54)cc23)CC1 (single isomer, unassigned) [Example 94, 5-((3-(1-Methyl-1,2,3,6-tetrahydropyridin-4-yl)-1H-indazol-5-yl)amino)-5,6,7,8-tetrahydronaphthalene-2-carbonitrile]	–	1000 to 10000 nM	> 10000 nM
N#Cc1ccc2c(c1)CCC[C@@H]2Nc1ccc2[nH]nc(-c3ccc(Br)cc3)c2c1 (single isomer, unassigned) [Example 95, 5-((3-(4-Bromophenyl)-1H-indazol-5-yl)amino)-5,6,7,8-tetrahydronaphthalene-2-carbonitrile]	1000 to 10000 nM	< 100 nM	–

Continued, values first:

IC50 (LRRK2 WT; class symbols)	IC50 (LRRK2 G2019S)	IC50 (LRRK2 WT; numeric bound)	Structure (SMILES)
< 100 nM	< 100 nM	–	N#Cc1ccc2c(c1)CCC[C@@H]2Nc1ccc2[nH]nc(-c3cnn4c3CCC4)c2c1 (single isomer, unassigned) [Example 96, 5-((3-(5,6-Dihydro-4H-pyrrolo[1,2-b]pyrazol-3-yl)-1H-indazol-5-yl)amino)-5,6,7,8-tetrahydronaphthalene-2-carbonitrile]
100 to 1000 nM	< 100 nM	–	Cn1ccc(-c2n[nH]c3ccc(N[C@H]4CCCc5cc(C#N)ccc54)cc23)cc1=O (single isomer, unassigned) [Example 97, 5-((3-(1-Methyl-2-oxo-1,2-dihydropyridin-4-yl)-1H-indazol-5-yl)amino)-5,6,7,8-tetrahydronaphthalene-2-carbonitrile]
< 100 nM	< 100 nM	–	N#Cc1ccc2c(c1)CCC[C@@H]2Nc1ccc2[nH]nc(-c3cccnc3)c2c1 (single isomer, unassigned) [Example 98, 5-((3-(Pyridin-3-yl)-1H-indazol-5-yl)amino)-5,6,7,8-tetrahydronaphthalene-2-carbonitrile]
100 to 1000 nM	< 100 nM	–	C/C=C\c1n[nH]c2ccc(N[C@H]3CCCc4cc(C#N)ccc43)cc12 (single isomer, unassigned) [Example 99, (Z)-5-((3-(Prop-1-en-1-yl)-1H-indazol-5-yl)amino)-5,6,7,8-tetrahydronaphthalene-2-carbonitrile]
< 100 nM	< 100 nM	–	Cc1cncc(-c2n[nH]c3ccc(N[C@H]4CCCc5cc(C#N)ccc54)cc23)c1 (single isomer, unassigned) [Example 100, 5-((3-(5-Methylpyridin-3-yl)-1H-indazol-5-yl)amino)-5,6,7,8-tetrahydronaphthalene-2-carbonitrile]
< 100 nM	< 100 nM	–	COc1c(C#N)ccc2c1CCC[C@@H]2Nc1ccc2[nH]nc(-c3cnco3)c2c1 (single isomer, unassigned) [Example 101, enantiomer 1, 1-Methoxy-5-{[3-(1,3-oxazol-5-yl)-1H-indazol-5-yl]amino}-5,6,7,8-tetrahydronaphthalene-2-carbonitrile]
< 100 nM	< 100 nM	–	COc1nc2c(cc1C#N)CCC[C@@H]2Nc1ccc2[nH]nc(-c3cnco3)c2c1 (single isomer, unassigned) [Example 102, enantiomer 1, 2-Methoxy-8-((3-(oxazol-5-yl)-1H-indazol-5-yl)amino)-5,6,7,8-tetrahydroquinoline-3-carbonitrile]
1000 to 10000 nM	100 to 1000 nM	–	COc1nc2c(cc1C#N)CCC[C@@H]2Nc1ccc2[nH]nc(-c3cnco3)c2c1 (single isomer, unassigned) [Example 102, enantiomer 2, 2-Methoxy-8-((3-(oxazol-5-yl)-1H-indazol-5-yl)amino)-5,6,7,8-tetrahydroquinoline-3-carbonitrile]
< 100 nM	< 100 nM	–	N#Cc1cnc2c(c1)CC[C@@H]2Oc1ccc2[nH]nc(-c3cnco3)c2c1 (single isomer, unassigned) [Example 103, enantiomer 1, 7-((3-(Oxazol-5-yl)-1H-indazol-5-yl)oxy)-6,7-dihydro-5H-cyclopenta[b]pyridine-3-carbonitrile]
< 100 nM	< 100 nM	–	N#Cc1ccc2c(c1)CCCC[C@@H]2Nc1ccc2[nH]nc(-c3cnco3)c2c1 (single isomer, unassigned) [Example 104, enantiomer 1, 5-((3-(Oxazol-5-yl)-1H-indazol-5-yl)amino)-6,7,8,9-tetrahydro-5H-benzo[7]annulene-2-carbonitrile]
